Source: patent publication US20230079045A1 (priority 2019, published 2023)

system: IFV A/PR/8/34; assay: cytopathic effect (CPE) antiviral test in MDCK cells, IFV A/PR/8/34; assay type: cell-based, influenza virus; settings: unidentified influenza virus, PR/8, MDCK, 120 h, read-out: EC50(IFV A/PR/8/34)

SMILES | EC50 [nM]
Cc1nnn(C(c2ccccc2)C2CCN(C(=O)c3cc(-c4nc5cc(NC(=O)[C@H]6C[C@@H]6F)ccc5o4)ccn3)CC2)n1 (mixture of isomers) [Compound 184, (1R,2S)-2-fluoro-N-(2-(2-(4-((R/S)-(5-methyl-2H-tetrazol-2-yl)(phenyl)methyl)piperidine-1-carbonyl)pyridin-4-yl)benzo[d]oxazol-5-yl)cyclopropanecarboxamide] | 14
Cc1cn(-c2ccc3oc(-c4ccnc(C(=O)N5CCC(C(c6ccccc6)n6nnc(C)n6)CC5)c4)nc3c2)cn1 (racemic) [Compound 189, (R/S)-(4-(5-(4-methyl-1H-imidazol-1-yl)benzo[d]oxazol-2-yl)pyridin-2-yl)(4-((5-methyl-2H-tetrazol-2-yl)(phenyl)methyl)piperidin-1-yl)methanone] | 11
Cn1cnc(-c2ccc3oc(-c4ccnc(C(=O)N5CCN(C(c6ccccc6)c6nnn(C(F)F)n6)CC5)c4)nc3c2)c1 (racemic) [Compound 147, (R/S)-(4-((2-(difluoromethyl)-2H-tetrazol-5-yl)(phenyl)methyl)piperazin-1-yl)(4-(5-(1-methyl-1H-imidazol-4-yl)benzo[d]oxazol-2-yl)pyridin-2-yl)methanone] | 14
Cc1nnn(C(c2ccccc2)C2CCN(C(=O)c3cc(-c4cc5cc(-c6cncn6C)ccc5o4)ccn3)CC2)n1 (racemic) [Compound 186, (R/S)-(4-(5-(1-methyl-1H-imidazol-5-yl)benzofuran-2-yl)pyridin-2-yl)(4-((5-methyl-2H-tetrazol-2-yl)(phenyl)methyl)piperidin-1-yl)methanone] | 2
COCn1nnc(C(c2ccccc2)N2CCN(C(=O)c3cc(-c4nc5cc(NC(=O)[C@@H]6C[C@@H]6F)ccc5o4)ccn3)CC2)n1 (mixture of isomers) [Compound 214, (1S,2S)-2-fluoro-N-(2-(2-(4-((R/S)(2-(methoxymethyl)-2H-tetrazol-5-yl)(phenyl)methyl)piperazine-1-carbonyl)pyridin-4-yl)benzo[d]oxazol-5-yl)cyclopropane-1-carboxamide] | 1.9
[2H]C([2H])([2H])C(C(=O)Nc1ccc2oc(-c3ccnc(C(=O)N4CCC(C(c5ccccc5)n5nnc(C)n5)CC4)c3)nc2c1)C([2H])([2H])[2H] (racemic) [Compound 132, 3,3,3-trideuterio-N-[2-[2-[4-[(R/S)-(5-methyltetrazol-2-yl)-phenyl-methyl]piperidine-1-carbonyl]-4-pyridyl]-1,3-benzoxazol-5-yl]-2-(trideuteriomethyl)propanamide] | 4
Cc1cn(-c2ccc3oc(-c4ccnc(C(=O)N5CCN(C(c6ccccc6)c6nnn(C(F)F)n6)CC5)c4)nc3c2)cn1 (racemic) [Compound 158, (R/S)-(4-((2-(difluoromethyl)-2H-tetrazol-5-yl)(phenyl)methyl)piperazin-1-yl)(4-(5-(4-methyl-1H-imidazol-1-yl)benzo[d]oxazol-2-yl)pyridin-2-yl)methanone] | 3
O=C(c1cc(-c2nc3cc(-c4cnn(C(F)(F)F)c4)ccc3o2)ccn1)N1CCN(C(c2ccccc2)c2nnn(C(F)F)n2)CC1 (racemic) [Compound 161, (R/S)-(4-((2-(difluoromethyl)-2H-tetrazol-5-yl)(phenyl)methyl)piperazin-1-yl)(4-(5-(1-(trifluoromethyl)-1H-pyrazol-4-yl)benzo[d]oxazol-2-yl)pyridin-2-yl)methanone] | 20
Cc1nnn(C(c2ccccc2)C2CCN(C(=O)c3cc(-c4nc5cc(-c6cnn(C)c6)ccc5o4)ccn3)CC2)n1 (racemic) [Compound 133, (R/S)-(4-(5-(1-methyl-1H-pyrazol-4-yl)benzo[d]oxazol-2-yl)pyridin-2-yl)(4-((5-methyl-2H-tetrazol-2-yl)(phenyl)methyl)piperidin-1-yl)methanone] | 33
Cn1nncc1-c1ccc2oc(-c3ccnc(C(=O)N4CCN(C(c5ccccc5)c5nnn(C(F)F)n5)CC4)c3)nc2c1 (racemic) [Compound 131, (R/S)-(4-((2-(difluoromethyl)-2H-tetrazol-5-yl)(phenyl)methyl)piperazin-1-yl)(4-(5-(1-methyl-1H-1,2,3-triazol-5-yl)benzo[d]oxazol-2-yl)pyridin-2-yl)methanone] | 12
CC(=O)OCc1nnn(C(c2ccccc2)C2CCN(C(=O)c3cc(-c4nc5cc(NC(=O)[C@@H]6C[C@@H]6F)ccc5o4)ccn3)CC2)n1 (mixture of isomers) [Compound 199, (2-((R/S)-(1-(4-(5-((1S,2S)-2-fluorocyclopropane-1-carboxamido)benzo[d]oxazol-2-yl)picolinoyl)piperidin-4-yl)(phenyl)methyl)-2H-tetrazol-5-yl)methyl acetate] | 1.8
Cn1cncc1-c1ccc2oc(-c3ccnc(C(=O)N4CCC(C(c5ccccc5)n5nnc(C(F)F)n5)CC4)c3)nc2c1 (racemic) [Compound 166, (R/S)-(4-((5-(difluoromethyl)-2H-tetrazol-2-yl)(phenyl)methyl)piperidin-1-yl)(4-(5-(1-methyl-1H-imidazol-5-yl)benzo[d]oxazol-2-yl)pyridin-2-yl)methanone] | 6
O=C(Nc1ccc2oc(-c3ccnc(C(=O)N4CCN(C(c5ccsc5)c5nnn(C(F)F)n5)CC4)c3)nc2c1)[C@@H]1C[C@@H]1F (mixture of isomers) [Compound 122, (1S,2S)—N-(2-(2-(4-((R/S)-(2-(difluoromethyl)-2H-tetrazol-5-yl)(thiophen-3-yl)methyl)piperazine-1-carbonyl)pyridin-4-yl)benzo[d]oxazol-5-yl)-2-fluorocyclopropane-1-carboxamide] | 19
Cc1nnn(C(c2ccccc2)C2CC3CCC(C2)N3C(=O)c2cc(-c3nc4cc(NC(=O)[C@@H]5C[C@@H]5F)ccc4o3)ccn2)n1 (mixture of isomers) [Compound 208, (1S,2S)-2-fluoro-N-(2-(2-(3-((R/S)-(5-methyl-2H-tetrazol-2-yl)(phenyl)methyl)-8-azabicyclo[3.2.1]octane-8-carbonyl)pyridin-4-yl)benzo[d]oxazol-5-yl)cyclopropanecarboxamide] | 6.9
Cc1nnn(C(c2ccccc2)C2CCN(C(=O)c3cc(-c4nc5cc(-c6cnn(C)c6C)ccc5o4)ccn3)CC2)n1 (racemic) [Compound 187, (R/S)-(4-(5-(1,5-dimethyl-1H-pyrazol-4-yl)benzo[d]oxazol-2-yl)pyridin-2-yl)(4-((5-methyl-2H-tetrazol-2-yl)(phenyl)methyl)piperidin-1-yl)methanone] | 6
O=C(c1cc(-c2cc3cc(NC(=O)C4(F)CC4)ccc3o2)ccn1)N1CCN(C(c2ccccc2)c2nnn(C(F)F)n2)CC1 (racemic) [Compound 143, (R/S)—N-(2-(2-(4-((2-(difluoromethyl)-2H-tetrazol-5-yl)(phenyl)methyl)piperazine-1-carbonyl)pyridin-4-yl)benzofuran-5-yl)-1-fluorocyclopropane-1-carboxamide] | 13
Cc1nnn(C(c2ccccc2)C2CCN(C(=O)c3cc(-c4nc5cc(NC(=O)C(C)(C)F)ccc5o4)ccn3)CC2)n1 (racemic) [Compound 135, (R/S)-2-fluoro-2-methyl-N-(2-(2-(4-((5-methyl-2H-tetrazol-2-yl)(phenyl)methyl)piperidine-1-carbonyl)pyridin-4-yl)benzo[d]oxazol-5-yl)propanamide] | 23
